Results published in patent publication US20230365602A1, “COMPOUND FOR USE IN THE TREATMENT OF PROTOZOAL DISEASES AND PROCESS FOR PRODUCTION OF SAID COMPOUND” (QUADREL S.R.L., priority 2020, published 2023).
Values joined by “and” are separate entries in the source; they are usually repeats but may differ in a detail not shown here. Equal values may be shown once. Read-outs that look alike come from different tables or passages of the source.

How the values were obtained:
Leishmania infantum [1] = experiment: Efficacy in mice infected with Leishmania infantum, 21-day treatment, limiting dilution assay; assay type: in vivo, BALB/c mice
Protocol: The rationale for the choice of four doses was to enable dose dependent information in activity and toxicity. The wait period of 15 days after treatment end enabled the follow up of reappearance of infection and also the determination of the time dependent compound elimination. […] Three days after the last treatment the mice were euthanized and parasite burden (log number of parasites/mg of organ) was evaluated by limiting dilution assay, essentially as described in Tavares. J. et al (Methods Mol Biol, 2019; 1971:289-301), in the spleen (FIG. 2B) and in the liver (FIG. 2C). Data represent the mean±SD, *p<0.05, **p<0.01 (One way ANOVA with Dunnett's test) in comparison with the untreated group.

HDAC4 = HDAC4 (Homo sapiens, UniProt P56524); experiment: HDAC4 activity inhibition; assay type: biochemical
HDAC4, sequence (P56524 whole entry, species assumed): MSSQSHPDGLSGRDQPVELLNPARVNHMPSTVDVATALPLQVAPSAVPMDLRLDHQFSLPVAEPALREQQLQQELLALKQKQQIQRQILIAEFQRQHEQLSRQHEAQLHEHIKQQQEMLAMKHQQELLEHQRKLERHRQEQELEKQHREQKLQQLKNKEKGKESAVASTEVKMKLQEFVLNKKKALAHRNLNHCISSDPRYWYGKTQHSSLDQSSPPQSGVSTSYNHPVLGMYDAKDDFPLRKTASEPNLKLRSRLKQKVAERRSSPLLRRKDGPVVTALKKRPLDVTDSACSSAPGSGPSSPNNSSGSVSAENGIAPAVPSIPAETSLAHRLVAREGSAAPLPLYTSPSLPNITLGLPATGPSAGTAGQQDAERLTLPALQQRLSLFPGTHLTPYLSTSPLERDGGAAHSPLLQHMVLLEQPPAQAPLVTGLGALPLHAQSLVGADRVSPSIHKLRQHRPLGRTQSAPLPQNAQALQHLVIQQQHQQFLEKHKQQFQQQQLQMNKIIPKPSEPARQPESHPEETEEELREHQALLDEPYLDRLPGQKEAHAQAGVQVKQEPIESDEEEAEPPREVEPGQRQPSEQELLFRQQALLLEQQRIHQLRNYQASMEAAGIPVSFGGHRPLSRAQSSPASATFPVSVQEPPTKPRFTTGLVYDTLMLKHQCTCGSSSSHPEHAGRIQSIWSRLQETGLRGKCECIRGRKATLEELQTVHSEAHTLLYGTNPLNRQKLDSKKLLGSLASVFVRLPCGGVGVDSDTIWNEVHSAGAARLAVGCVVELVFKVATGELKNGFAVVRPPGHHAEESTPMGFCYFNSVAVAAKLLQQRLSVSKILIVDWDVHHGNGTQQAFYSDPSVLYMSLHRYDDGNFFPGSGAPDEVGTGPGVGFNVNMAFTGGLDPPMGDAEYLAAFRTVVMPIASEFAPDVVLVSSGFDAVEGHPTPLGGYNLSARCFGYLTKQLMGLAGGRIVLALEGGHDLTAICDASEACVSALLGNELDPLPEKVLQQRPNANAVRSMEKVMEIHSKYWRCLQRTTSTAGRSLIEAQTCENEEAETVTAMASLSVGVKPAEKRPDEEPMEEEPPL

HDAC6 = HDAC6 (Homo sapiens, UniProt Q9UBN7); experiment: HDAC6 activity inhibition; assay type: biochemical
HDAC6, sequence (Q9UBN7 whole entry, species assumed): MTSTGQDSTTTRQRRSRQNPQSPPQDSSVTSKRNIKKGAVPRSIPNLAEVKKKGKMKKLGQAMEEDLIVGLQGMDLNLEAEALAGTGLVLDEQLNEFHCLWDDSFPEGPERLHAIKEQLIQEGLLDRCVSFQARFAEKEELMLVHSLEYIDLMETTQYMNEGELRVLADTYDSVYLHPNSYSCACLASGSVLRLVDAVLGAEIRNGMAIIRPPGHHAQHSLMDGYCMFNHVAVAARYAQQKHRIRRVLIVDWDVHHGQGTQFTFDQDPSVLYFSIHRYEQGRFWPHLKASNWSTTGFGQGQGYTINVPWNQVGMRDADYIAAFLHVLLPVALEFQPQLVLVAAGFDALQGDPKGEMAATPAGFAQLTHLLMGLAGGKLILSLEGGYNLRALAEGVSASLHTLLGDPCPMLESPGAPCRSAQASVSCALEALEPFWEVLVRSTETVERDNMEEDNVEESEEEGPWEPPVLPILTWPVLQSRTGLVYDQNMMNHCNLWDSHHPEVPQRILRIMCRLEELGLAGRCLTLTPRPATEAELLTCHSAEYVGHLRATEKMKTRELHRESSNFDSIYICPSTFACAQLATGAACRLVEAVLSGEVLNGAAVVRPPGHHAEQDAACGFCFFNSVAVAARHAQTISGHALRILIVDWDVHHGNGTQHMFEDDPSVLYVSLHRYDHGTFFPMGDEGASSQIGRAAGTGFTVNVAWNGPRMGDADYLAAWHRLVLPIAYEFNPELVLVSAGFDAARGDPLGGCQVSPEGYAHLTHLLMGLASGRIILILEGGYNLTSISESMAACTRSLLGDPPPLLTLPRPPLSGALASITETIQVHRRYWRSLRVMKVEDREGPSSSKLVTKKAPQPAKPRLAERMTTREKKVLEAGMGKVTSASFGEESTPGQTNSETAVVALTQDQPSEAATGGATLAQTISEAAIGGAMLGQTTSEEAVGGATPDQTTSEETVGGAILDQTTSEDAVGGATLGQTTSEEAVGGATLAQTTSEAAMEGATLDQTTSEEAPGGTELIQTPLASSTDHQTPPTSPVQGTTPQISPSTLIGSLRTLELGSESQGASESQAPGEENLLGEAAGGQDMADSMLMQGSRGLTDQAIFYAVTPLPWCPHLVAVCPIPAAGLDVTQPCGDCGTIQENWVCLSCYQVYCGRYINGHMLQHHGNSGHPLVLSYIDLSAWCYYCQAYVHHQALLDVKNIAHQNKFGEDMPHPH

[2] = test system: L. infantum intracellular amastigotes LEM235; experiment: Anti-leishmanial activity, L. infantum LEM235 intracellular amastigotes; assay type: cell-based; details: for IC50: Leishmania infantum, read-out: L. infantum intracellular amastigotes LEM235 IC50 ± SEM
Excerpt: (§1) The in vitro antiparasitic activity of compound 5-cyclopentadecylpentyl (2-(trimethylammonio)ethyl) phosphate (19) against L. infantum (2 species), L. amazonensis, L. donovani and L. major is presented in Table 3, as well as the toxicity against the human monocytic cell Line THP1 and PMA-differentiated THP-1 cells.

Human plasma stability = assay type: in vitro ADME; details: samples at 0, 15, 30, 45, 60, 120 minutes
Protocol: (§2) Furthermore, compound 19 is stable in human hepatic microsomes (samples were taken at 0, 5, 15, 30, 45 minutes) (Table 8), while the human plasma stability is 99.7% (samples were taken at 0, 15, 30, 45, 60, 120 minutes).

[3] = Human microsomal stability; assay type: in vitro ADME
Protocol: as §2

[4] = Cytotoxicity, Human Monocytic Cell Line THP1; assay type: cell-based
Excerpt: as §1

HDAC8 = HDAC8 (Homo sapiens, UniProt Q9BY41); experiment: HDAC8 activity inhibition; assay type: biochemical
HDAC8, sequence (Q9BY41 whole entry, species assumed): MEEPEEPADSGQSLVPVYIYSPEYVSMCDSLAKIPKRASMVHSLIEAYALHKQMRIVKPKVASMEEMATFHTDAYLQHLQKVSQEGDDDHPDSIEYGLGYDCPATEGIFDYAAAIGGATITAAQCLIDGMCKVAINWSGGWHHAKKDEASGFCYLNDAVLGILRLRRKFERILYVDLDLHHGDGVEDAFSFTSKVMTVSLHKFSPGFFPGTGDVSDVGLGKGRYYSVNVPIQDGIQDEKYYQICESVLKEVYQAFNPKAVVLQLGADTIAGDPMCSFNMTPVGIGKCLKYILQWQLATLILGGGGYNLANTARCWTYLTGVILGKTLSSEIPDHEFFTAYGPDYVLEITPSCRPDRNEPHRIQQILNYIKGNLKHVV

Aurora B kinase = Aurora B kinase (Homo sapiens, UniProt Q96GD4); experiment: Early toxicity: Aurora B kinase inhibition; assay type: biochemical; details: Table 5
Leishmania infantum [5] = experiment: Efficacy in mice infected with Leishmania infantum, 10-day treatment; assay type: in vivo, BALB/c mice; details: 10 consecutive days; for parasite burden in the spleen: 20 mg/kg and 10 mg/kg
Protocol: (A) Experimental approach; (B) and (C) are graphic presentations of parasite burden in the spleen and the liver, respectively, evaluated by limiting dilution assay.
The treatments were reduced to 10 consecutive days at doses of 2.5, 5, 10 or 20 mg/Kg/day (FIG. 3).

HDAC9 = HDAC9 (Homo sapiens, UniProt Q9UKV0); experiment: HDAC9 activity inhibition; assay type: biochemical
HDAC9, sequence (Q9UKV0 whole entry, species assumed): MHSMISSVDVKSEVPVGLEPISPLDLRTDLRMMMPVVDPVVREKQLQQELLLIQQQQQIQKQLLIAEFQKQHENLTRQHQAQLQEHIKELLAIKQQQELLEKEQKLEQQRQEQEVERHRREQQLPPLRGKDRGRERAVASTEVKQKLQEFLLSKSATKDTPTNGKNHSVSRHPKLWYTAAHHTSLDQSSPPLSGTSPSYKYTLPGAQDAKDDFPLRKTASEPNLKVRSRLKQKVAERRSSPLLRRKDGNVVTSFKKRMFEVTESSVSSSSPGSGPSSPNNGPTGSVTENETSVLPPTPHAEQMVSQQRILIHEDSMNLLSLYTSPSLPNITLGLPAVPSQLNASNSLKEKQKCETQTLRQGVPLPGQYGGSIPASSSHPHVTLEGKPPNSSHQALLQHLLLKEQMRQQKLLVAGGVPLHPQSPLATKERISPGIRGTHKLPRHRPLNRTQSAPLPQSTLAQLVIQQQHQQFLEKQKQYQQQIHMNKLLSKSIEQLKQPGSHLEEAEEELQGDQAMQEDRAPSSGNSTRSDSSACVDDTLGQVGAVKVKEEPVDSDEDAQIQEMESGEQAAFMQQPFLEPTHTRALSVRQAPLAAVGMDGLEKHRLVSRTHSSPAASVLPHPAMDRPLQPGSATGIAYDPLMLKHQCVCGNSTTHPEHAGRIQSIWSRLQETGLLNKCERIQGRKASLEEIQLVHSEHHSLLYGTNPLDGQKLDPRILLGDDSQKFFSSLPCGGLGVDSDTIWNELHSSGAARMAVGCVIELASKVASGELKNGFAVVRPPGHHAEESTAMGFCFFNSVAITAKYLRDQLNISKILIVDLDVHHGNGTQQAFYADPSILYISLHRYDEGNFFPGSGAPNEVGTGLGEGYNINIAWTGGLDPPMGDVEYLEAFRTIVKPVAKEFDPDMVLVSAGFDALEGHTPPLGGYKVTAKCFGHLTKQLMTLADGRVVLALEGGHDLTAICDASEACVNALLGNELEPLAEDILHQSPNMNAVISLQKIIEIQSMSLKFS

[6] = test system: L. donovani 1SR intracellular amastigotes; experiment: Anti-leishmanial activity, L. donovani intracellular amastigotes; assay type: cell-based; details: Leishmania donovani; read-out: L. donovani 1SR intracellular amastigotes IC50 ± SEM
Excerpt: as §1

T. b. brucei GVR35 = experiment: Stage II HAT mice model, live imaging; assay type: in vivo
[7] = Snapshot pharmacokinetics in plasma after oral gavage; assay type: in vivo, mice
Protocol: Pharmacology of 5-cyclopentadecylpentyl (2-(trimethylammonio)ethyl) phosphate (19) in mice.
Blood samples were collected from the tail vein at 0, 0.5, 0.75, 1, 3, 24 and 72 hours into heparinized tubes. Moreover, biodistribution of the molecule, 72h after administration, was determined in several organs of the treated mice, namely brain, liver, spleen, kidney, heart and bone marrow. […] J Chromatogr B, 865: 55-62) by liquid chromatography mass spectrometry (LC-MS/MS).

[8] = test system: L. infantum (MHOM/MA/67/ITMAP-263) intracellular amastigotes; experiment: Anti-parasitic activity against L. infantum intracellular amastigotes (infection with axenic amastigotes luciferase positive); assay type: cell-based
[9] = test system: L. amazonensis intracellular amastigotes; experiment: Anti-leishmanial activity, L. amazonensis intracellular amastigotes; assay type: cell-based; details: Leishmania amazonensis
Excerpt: as §1

[10] = test system: T. b. brucei L427 WT Blood-Stream Form; experiment: Anti-parasitic activity against T. b. brucei blood-stream form (resazurin 72 h assay); assay type: cell-based; details: for IC50: 72 h, read-out: Dose Response Curves IC50 ± SD (μM)
hERG channel [11] = target: T1, hERG channel (Homo sapiens, UniProt Q12809)
T1 sequence (Q12809 whole entry): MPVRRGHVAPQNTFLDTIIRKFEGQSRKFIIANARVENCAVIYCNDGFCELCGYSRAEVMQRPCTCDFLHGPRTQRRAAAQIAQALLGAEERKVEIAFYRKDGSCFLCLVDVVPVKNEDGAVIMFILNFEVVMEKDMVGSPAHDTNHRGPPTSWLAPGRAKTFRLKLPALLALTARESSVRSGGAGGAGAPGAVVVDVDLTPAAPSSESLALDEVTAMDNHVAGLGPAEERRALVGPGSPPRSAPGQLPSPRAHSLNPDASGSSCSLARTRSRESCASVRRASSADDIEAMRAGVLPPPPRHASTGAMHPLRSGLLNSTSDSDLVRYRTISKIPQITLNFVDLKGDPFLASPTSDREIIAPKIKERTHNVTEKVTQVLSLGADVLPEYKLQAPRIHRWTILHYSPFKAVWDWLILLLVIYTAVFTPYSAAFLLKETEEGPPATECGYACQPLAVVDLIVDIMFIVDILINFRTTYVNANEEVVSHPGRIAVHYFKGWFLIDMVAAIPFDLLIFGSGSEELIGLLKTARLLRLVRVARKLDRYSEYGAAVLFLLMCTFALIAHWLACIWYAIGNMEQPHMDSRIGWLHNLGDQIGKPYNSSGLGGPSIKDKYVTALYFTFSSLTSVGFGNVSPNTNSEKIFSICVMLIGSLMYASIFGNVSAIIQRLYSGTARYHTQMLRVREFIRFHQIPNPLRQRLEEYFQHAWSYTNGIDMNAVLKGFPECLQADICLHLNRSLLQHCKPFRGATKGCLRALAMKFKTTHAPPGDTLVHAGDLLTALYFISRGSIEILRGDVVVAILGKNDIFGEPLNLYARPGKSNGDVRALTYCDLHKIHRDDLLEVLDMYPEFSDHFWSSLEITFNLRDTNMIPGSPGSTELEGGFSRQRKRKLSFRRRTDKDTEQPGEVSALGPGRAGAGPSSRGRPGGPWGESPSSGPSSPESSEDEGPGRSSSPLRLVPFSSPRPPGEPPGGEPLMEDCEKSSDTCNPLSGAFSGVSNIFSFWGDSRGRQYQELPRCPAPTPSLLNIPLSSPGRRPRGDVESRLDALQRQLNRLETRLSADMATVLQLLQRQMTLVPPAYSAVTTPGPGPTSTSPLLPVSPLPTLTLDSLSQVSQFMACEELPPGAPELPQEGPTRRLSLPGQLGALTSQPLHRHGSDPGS

hERG channel [12] = target: T1, hERG channel; experiment: in vitro
[13] = BALB/c (Compound 19), NMRI (miltefosine), mouse, in vivo, po, 20 mg/kg
[14] = BALB/c, mouse, in vivo, po, 20 mg/kg

C[N+](C)(C)CCOP(=O)([O-])OCCCCCC1CCCCCCCCCCCCCC1 [Compound 19, 5-cyclopentadecylpentyl (2-(trimethylammonio)ethyl) phosphate]
average reduction of parasite burden, spleen (Leishmania infantum [1]; compound 19 2.5 mg/kg every other day for 21 days): 98% | parasite burden, spleen and liver (Leishmania infantum [1]; compound 19 every other day for 21 days, 20, 10, 5, 2.5 mg/kg, except 2.5 mg/kg in the spleen): maintained parasite burden under the detection limit | inhibition of the activity of HDAC4 (HDAC4; 100 μM): does not inhibit | inhibition of the activity of HDAC6 (HDAC6; 100 μM): does not inhibit | IC50 [2]: 0.7 ± 0.4 µM | Selectivity Index CC50/IC50 ([2]; THP1 CC50 / IC50 L. infantum LEM235): 714 | Human plasma Metabolic stability (%) (Human plasma stability): 99.7% | Degradation non NADPH dependent (%) ([3]; human microsomes): 0% | Human microsomal Metabolic stability (%) ([3]; samples at 0, 5, 15, 30, 45 minutes): 100% | CC50 ([4]; human monocytic cell line THP1, read-out: Cytotoxicity-Human Monocytic Cell Line THP1 CC50 ± SD): > 500 µM | effect on HDACr (HDAC8; 100 μM): not considered significant | inhibition at 10 µM (Aurora B kinase): -9.92 ± 8.99% | reduction of parasite burden, spleen (Leishmania infantum [5]; 2.5 mg/kg): 91±6% | reduction of parasite burden, spleen (Leishmania infantum [5]; 5 mg/kg): 99±1% | parasite burden in the spleen (Leishmania infantum [5]): able to maintain parasite burden below the detection limit | parasite load in the liver (Leishmania infantum [5]; all treatments (20, 10, 5, 2.5 mg/kg)): maintained the parasite load under the detection limit | inhibition of the activity of HDAC9 (HDAC9; 100 μM): does not inhibit | IC50 [6]: 24 ± 3.8 µM | average reduction of signal (average radiance) in the brain region (T. b. brucei GVR35; 50 mg/kg daily for 13 days, compared to beginning of treatment (day 21)): 99.96% | reduction of infection (T. b. brucei GVR35; 50 mg/kg/day PO, 13 days): > 99% | signal in the region of the brain lost (T. b. brucei GVR35; after 4 treatments (day 25), 50 mg/kg daily): 99.95% | overall and brain infection (T. b. brucei GVR35; compound 19 50 mg/kg/day PO): able to significantly reduce the overall infection and also in the brain | Cmax in plasma relative to the EC50 for L. infantum in vitro ([7]; 20 mg/kg oral gavage): 10 fold | AUC(0-inf) ([7]; BALB/c (Compound 19), NMRI (miltefosine), mouse, plasma, healthy mice, 20 mg/kg oral gavage, Table 10, read-out: AUC (0-∞)): 967 ± 471 µg·h/mL | AUC(0-inf) ([7]; BALB/c (Compound 19), NMRI (miltefosine), mouse, plasma, healthy mice, 20 mg/kg oral gavage, Table 10, read-out: AUC (0-∞) (μM h/mL)): 2090 µM·h | Cmax ([7]; BALB/c (Compound 19), NMRI (miltefosine), mouse, plasma, healthy mice, 20 mg/kg oral gavage, Table 10, read-out: Cmax): 33.4 µM | Cmax ([7]; BALB/c (Compound 19), NMRI (miltefosine), mouse, plasma, healthy mice, 20 mg/kg oral gavage, Table 10, read-out: Cmax (μg/mL)): 15.4 ± 9.3 µg/mL | half-life ([7]; BALB/c (Compound 19), NMRI (miltefosine), mouse, plasma, healthy mice, 20 mg/kg oral gavage, Table 10, read-out: t1/2 (converted)): 17.4 ± 4.2 h | Tmax ([7]; BALB/c (Compound 19), NMRI (miltefosine), mouse, healthy mice, 20 mg/kg oral gavage, plasma, Table 10, read-out: tmax): 24 h | Ke (h − 1) ([7]; healthy BALB/c mice, 20 mg/kg gavage, Table 13): 0.049 h − 1 | Ke ([7]; healthy mice, 20 mg/kg oral gavage, Table 10): 0.049 h⁻¹ | AUC(0-inf) ([7]; mouse, plasma, po, healthy BALB/c mice, 20 mg/kg gavage, Table 13, read-out: AUC (0-∞)): 967 ± 471 µg·h/mL | AUC(0-inf) ([7]; mouse, plasma, po, healthy BALB/c mice, 20 mg/kg gavage, Table 13, read-out: AUC (0-∞) (μM h/mL)): 2090 µM·h | Cmax ([7]; mouse, plasma, po, healthy BALB/c mice, 20 mg/kg gavage, Table 13, read-out: Cmax): 33.4 µM | Cmax ([7]; mouse, plasma, po, healthy BALB/c mice, 20 mg/kg gavage, Table 13, read-out: Cmax (μg/mL)): 15.4 ± 9.3 µg/mL | Tmax ([7]; mouse, plasma, po, healthy BALB/c mice, 20 mg/kg gavage, Table 13, read-out: tmax): 24 h | half-life ([7]; mouse, plasma, po, healthy BALB/c mice, 20 mg/kg gavage, Table 13, read-out: t½ (converted)): 17.4 ± 4.2 h | inhibition at 10 µM ([8]; Leishmania infantum, 10 μM, Table 1, read-out: Single Dose Assay 10 μM Mean Inhibitory Activity (%) ± SD): 78 ± 2% | IC50 ([8]; Leishmania infantum, Table 1, read-out: Dose Response Curves IC50 ± SD): 1.4 ± 0.1 µM | IC50 ([8]; Leishmania infantum, Table 3, read-out: L. infantum intracellular amastigotes (MHOM/MA/67/ITMAP-263) IC50 ± SEM): 1.4 ± 0.1 µM | Selectivity Index CC50/IC50 or NOAEL/IC50 ([8]; PMA-differentiated THP-1 CC50 / IC50 L. infantum MHOM/MA/67/ITMAP-263, Table 3): >71 | Selectivity Index CC50/IC50 or NOAEL/IC50 ([8]; THP-1 toxicity / L. infantum IC50, Table 1): >71 | IC50 [9]: 5.4 µM | activity against T. b. brucei blood-stream form ([10]; Table 2): unexpectedly high activity in the low micromolar range | IC50 ([10]; Trypanosoma brucei): 4.47 ± 0.2 µM | inhibition at 10 µM ([10]; Trypanosoma brucei, read-out: Single Dose Assay 10 μM Mean Inhibitory Activity (%) ± SD): 99 ± 1% | Selectivity Index CC50/IC50 or NOAEL/IC50 ([10]; toxicity / T. b. brucei IC50, Table 2): >22

CCCCCCCCCCCCCCCCOP(=O)([O-])OCC[N+](C)(C)C [Miltefosine, hexadecylphosphocholine, reference compound]
parasite burden reduction, liver (Leishmania infantum [1]; miltefosine 2.5 mg/kg, 21 consecutive days): 98% | parasite burden in the spleen (Leishmania infantum [1]; miltefosine 10 mg/kg, oral gavage, 21 consecutive days): one of the animals presented detected parasites in the spleen | parasite burden (Leishmania infantum [1]; miltefosine 20 mg/kg, oral gavage, 21 consecutive days): maintained parasite burden under the detection limit | parasite burden in the liver (Leishmania infantum [1]; miltefosine 20, 10, 5 mg/kg, 21 consecutive days): parasite burdens under the detection limit | parasite burden reduction, spleen (Leishmania infantum [1]; miltefosine lower doses (5 and 2.5 mg/kg), 21 consecutive days): more than 99% | inhibition of the activity of HDAC4 (HDAC4; 10 μM): did not inhibit | inhibition of the activity of HDAC6 (HDAC6; 10 μM): did not inhibit | IC50 [2]: 6.7 ± 1 µM | CC50 [4]: 28.6 ± 2.48 µM | inhibition of the activity of HDAC8 (HDAC8; 10 μM): did not inhibit | reduction of parasite burden, spleen (Leishmania infantum [5]; 2.5 mg/kg): 64±33% | reduction of parasite burden, spleen (Leishmania infantum [5]; 5 mg/kg): 70±36% | parasite burden in the spleen (Leishmania infantum [5]): not able to maintain parasite burden under the detection limit | average reduction of parasite load, spleen (Leishmania infantum [5]; 20 and 10 mg/kg): > 99% | reduction of average parasite burden, liver (Leishmania infantum [5]; all tested concentrations): more than 98% | inhibition of the activity of HDAC9 (HDAC9; 10 μM): did not inhibit | Flag for Interference, hERG (hERG channel [11]): (no) | IC50 [6]: 12.7 ± 3.3 µM | infection outcome (words) (T. b. brucei GVR35; miltefosine treated animals, sacrificed after 7 treatments): no reduction in infection | weight loss associated to the treatment (T. b. brucei GVR35; miltefosine treated infected animals): constant weight loss | inhibition at 10 µM (hERG channel [12]): -16.9 ± 7.34% | AUC(0-inf) [7, 13]: 2.4e+06 ng·h/mL and 5960 µM·h | Cmax [7, 13]: 30600 ng/mL and 75.1 µM | Tmax [7, 13]: 24 h | half-life [7, 13]: 43.3 ± 5.5 h | Ke (h − 1) ([7]; BALB/c, mouse, in vivo, 20 mg/kg): 0.016 ± 0.002 h − 1 | AUC(0-inf) [7, 14]: 2.4e+06 ng·h/mL and 5960 µM·h | Cmax [7, 14]: 30600 ng/mL and 75.1 µM | Tmax [7, 14]: 24 h | half-life [7, 14]: 43.3 ± 5.5 h | IC50 ([8]; Leishmania infantum, read-out: Dose Response Curves IC50 ± SD (μM)): 2.51 ± 1.73 µM | IC50 ([8]; Leishmania infantum, read-out: L. infantum intracellular amastigotes (MHOM/MA/67/ITMAP-263) IC50 ± SEM (μM)): 3.2 ± 1.4 µM | IC50 [9]: 14.2 µM | IC50 ([10]; Trypanosoma brucei): 33.9 ± 0.5 µM
